Experimental findings from patent publication US11053234B2 (GlaxoSmithKline Intellectual Property Development Limited, priority 2016, dated 2021) are described below.

Structures can show the parent of a compound that is named as a salt.

The first experiment deals with T1, haematopoietic prostaglandin D synthase (H-PGDS) (Homo sapiens, UniProt O60760).
T1 construct: Full length human H-PGDS cDNA (Invitrogen Ultimate ORF 10H13026) was amplified by PCR; 6-His (N); TEV protease cleavage site (N); made in house; host or cells: E. coli BL21 (DE3*), vector pET22b+
T1 sequence (O60760 whole entry): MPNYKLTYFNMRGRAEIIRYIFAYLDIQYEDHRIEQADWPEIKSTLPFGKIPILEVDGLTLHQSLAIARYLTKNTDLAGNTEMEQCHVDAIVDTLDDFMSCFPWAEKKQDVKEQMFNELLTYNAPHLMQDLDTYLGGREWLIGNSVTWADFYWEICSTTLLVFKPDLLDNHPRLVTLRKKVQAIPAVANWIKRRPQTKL
Description: H-PGDS RapidFire high throughput mass spectrometry assay (conversion of PGH2 to PGD2). Conditions: 10 nM H-PGDS, PGH2 formed in situ by COX-2 from arachidonic acid. In kind it is biochemical. The procedure: H-PGDS RapidFire™ High Throughput Mass Spectrometry Assay
The H-PGDS RapidFire™ mass spectrometric assay monitors conversion of prostaglandin H2 (PGH2) to prostaglandin D2 (PGD2) by haematopoietic prostaglandin D synthase (H-PGDS). In the assay format described here, the substrate (PGH2) is formed in situ by the action of cyclooxygenase-2 on arachidonic acid. This first step is set up to be fast, and generates a burst of PGH2 at ˜10 μM. The PGH2 is then further converted to PGD2 by the H-PGDS enzyme. […] Plates are then read on the RapidFire™ high throughput solid phase extraction system (Agilent) which incorporates a solid phase extraction step coupled to a triple quadrupole mass spectrometer (AB SCIEX). Relative levels of PGD2 and PGF2α, which acts as a surrogate for substrate, are measured and a percent conversion calculated.
Expression and Purification of H-PGDS Protein
Full length human H-PGDS cDNA (Invitrogen Ultimate ORF 10H13026) was amplified by PCR with the addition of a 5′ 6-His tag and TEV protease cleavage site. The PCR product was digested with Ndel and Xhol and ligated into pET22b+ (Merck Novagen®). Expression was carried out in E. coli strain BL21 (DE3*) using auto-induction Overnight Express™ Instant TB medium (Merck Novagen®) supplemented with 1% glycerol. The culture was first grown at 37° C. and the temperature was reduced to 25° C. when OD600 reached 2.0. Cells were harvested by centrifugation after a further 18 hr. 10 g of E. coli cell pellet was suspended to a total volume of 80 mL in lysis buffer (20 mM Tris-Cl pH 7.5, 300 mM NaCl, 20 mM imidazole, 5 mM β-mercaptoethanol, 10% glycerol). 1 mg/mL protease inhibitors (Protease Inhibitor Cocktail Set III, Merck Calbiochem®) and 1 mg/mL lysozyme were added to the cell suspension. The suspension was then sonicated for 5 min (UltraSonic Processor VCX 750, Cole-Parmer Instrument Co.) with a micro probe (50% amplitude, 10 sec on/off) and then centrifuged at 100,000 g for 90 min (at 4° C.). The supernatant was loaded onto a Ni-NTA HiTrap column (5 mL, GE Healthcare, pre-equilibrated in lysis buffer). The column was washed with 10 column volumes of lysis buffer and eluted with lysis buffer containing 500 mM imidazole. The pooled protein peak fractions were concentrated using a 10 kDa centrifugal filter at 3500 g and 4° C. (Amicon Ultra-15 centrifugal filter unit with Ultracel-10 membrane from Millipore). Further purification of the concentrated protein was carried out using gel filtration chromatography on a HiLoad 26/600 Superdex 75 preparative grade column (GE Healthcare Life Sciences) using 50 mM Tris pH 7.5, 50 mM NaCl, 1 mM dithiothreitol, 1 mM MgCl2. Fractions containing the protein were pooled, concentrated as described above, and stored at −80° C.
Expression and Purification of Cyclooxygenase-2 (COX-2) Protein
The full length human COX-2 gene (accession number L15326) was amplified by PCR to generate an EcoRI-HindIII fragment containing an in-frame FLAG tag. This was subcloned into pFastBac 1 (Invitrogen). The COX2 FLAG plasmid was recombined into the baculovirus genome according to the BAC-to-BAC protocol described by Invitrogen. Transfection into Spodoptera frugiperda (Sf9) insect cells was performed using Cellfectin (Invitrogen), according to the manufacturer's protocol. […] Cells were harvested using a continuous feed centrifuge run at 2500 g at a rate of approximately 2 L/min with cooling. The resultant cell slurry was re-centrifuged in pots (2500 g, 20 min, 4° C.) and the cell paste was stored at −80° C. […] The suspension was sonicated in 500 mL batches for 8×5 seconds at 10 u amplitude with the medium tip of an MSE probe sonicator and subsequently incubated at 4° C. for 90 min with gentle stirring. The lysate was centrifuged at 12000 rpm for 45 min at 4° C. in a Sorvall SLA1500 rotor. The supernatant (1400 mL) was added to 420 mL of 20 mM Tris-Cl pH 7.4, 150 mM NaCl, 0.1 mM EDTA to reduce the concentration of n-octyl-6-D-glucopyranoside to 1% w/v.
`CS(=O)(=O)C1CCC(NC(=O)N2CC(Oc3cccc4scnc34)C2)CC1` (stereo not shown) [Example 98, 3-(Benzo[d]thiazol-4-yloxy)-N-(4-(methylsulfonyl)cyclohexyl)azetidine-1-carboxamide]: the “Potency Range (mean pIC50)” value is listed as “** (pIC50 = 6.0-7.0)”.

Still in this experiment, the particulars now being: 10 nM H-PGDS, PGH2 formed in situ by COX-2 from arachidonic acid; read-out: Potency Range (mean pIC50) (converted).
In the case of `CC(C)(O)[C@H]1CC[C@H](NC(=O)[C@H]2C[C@H](Oc3cc(Cl)ccc3Cl)C2)CC1` [Example 257, (trans)-3-(2,5-Dichlorophenoxy)-N-((trans)-4-(2-hydroxypropan-2-yl)cyclohexyl)cyclobutanecarboxamide], the IC50 is 100 to 1000 nM. Consider `CC(C)(O)C1CC2(CC(NC(=O)[C@H]3C[C@H](Oc4cccc5cccnc45)C3)C2)C1` (mixture of isomers) [Example 170, Racemic (trans)-N-(6-(2-Hydroxypropan-2-yl)spiro[3.3]heptan-2-yl)-3-(quinolin-8-yloxy)cyclobutanecarboxamide], for which the IC50 was 10 to 79.4 nM. On the same count and under the same terms, the value for `CC(C)(O)C12C3C4C1C1C2C3C41NC(=O)[C@H]1C[C@H](Oc2cccc3scnc23)C1` (stereo partly drawn) [Example 320, (trans)-3-(Benzo[d]thiazol-4-yloxy)-N-(4-(2-hydroxypropan-2-yl)cuban-1-yl)cyclobutane-1-carboxamide] was 10 to 79.4 nM; that for `CC(C)(O)[C@H]1CC[C@H](NC(=O)[C@H]2C[C@H](Oc3cc(Cl)ccc3OC(F)F)C2)CC1` [Example 273, (trans)-3-(5-Chloro-2-(difluoromethoxy)phenoxy)-N-((trans)-4-(2-hydroxypropan-2-yl)cyclohexyl)cyclobutanecarboxamide] was 10 to 79.4 nM; that for `CCOCc1nc(NC(=O)[C@H]2C[C@H](Oc3cc(F)cc4scnc34)C2)n[nH]1` [Example 335] was 10 to 79.4 nM. The same measure, in the same setting: the value for `CN(C)c1nccc(N2CC(NC(=O)[C@H]3C[C@H](Oc4cccc5scnc45)C3)C2)n1` [Example 76, (trans)-3-(Benzo[d]thiazol-4-yloxy)-N-(1-(2-(dimethylamino)pyrimidin-4-yl)azetidin-3-yl)cyclobutanecarboxamide] was 100 to 1000 nM; that for `O=C(Nc1cccc(N2CCOCC2)c1)N1CC(Oc2cccc3scnc23)C1` [Example 309, 3-(Benzo[d]thiazol-4-yloxy)-N-(3-morpholinophenyl)azetidine-1-carboxamide] was 100 to 1000 nM.

On to `CS(=O)(=O)c1ccc(NC(=O)[C@H]2C[C@H](Oc3cccc4scnc34)C2)cc1` [Example 242, (trans)-3-(Benzo[d]thiazol-4-yloxy)-N-(4-(methylsulfonyl)phenyl)cyclobutanecarboxamide], for which the IC50 is 10 to 79.4 nM. The same measure, in the same setting: the same measure for `N#Cc1csc(NC(=O)[C@H]2C[C@H](Oc3cccc4cccnc34)C2)n1` [Example 188, (trans)-N-(4-Cyanothiazol-2-yl)-3-(quinolin-8-yloxy)cyclobutanecarboxamide, trifluoroacetic acid salt]: < 10 nM; for `Cc1n[nH]c(NC(=O)N2CC(Oc3cccc4scnc34)C2)c1C#N` [Example 329, 3-(Benzo[d]thiazol-4-yloxy)-N-(4-cyano-3-methyl-1H-pyrazol-5-yl)azetidine-1-carboxamide]: 100 to 1000 nM; for `COc1ccc(CN2CCC(NC(=O)[C@H]3C[C@H](Oc4cc(F)ccc4OC)C3)CC2)cc1Cl` [Example 156, (trans)-N-(1-(3-Chloro-4-methoxybenzyl)piperidin-4-yl)-3-(5-fluoro-2-methoxyphenoxy)cyclobutanecarboxamide]: 10 to 79.4 nM.

In the case of `NC(=O)c1cnc(NC(=O)[C@H]2C[C@H](Oc3cccc4cccnc34)C2)s1` [Example 191, 2-((trans)-3-(Quinolin-8-yloxy)cyclobutanecarboxamido)thiazole-5-carboxamide], the IC50 is 10 to 79.4 nM. Still for that read-out and setting: the value for `O=C(N[C@H]1CC[C@H](N[C@@H](CO)C(F)(F)F)CC1)[C@H]1C[C@H](Oc2cc(F)ccc2OC(F)F)C1` [Example 20, (trans)-3-(2-(Difluoromethoxy)-5-fluorophenoxy)-N-((trans)-4-(((S)-1,1,1-trifluoro-3-hydroxypropan-2-yl)amino)cyclohexyl)cyclobutanecarboxamide] was 10 to 79.4 nM; that for `CC(=O)c1csc(NC(=O)[C@H]2C[C@H](Oc3cccc4c(Br)coc34)C2)n1` [Example 271, (trans)-N-(4-Acetylthiazol-2-yl)-3-((3-bromobenzofuran-7-yl)oxy)cyclobutanecarboxamide] was 10 to 79.4 nM; that for `O=C(Nc1ccnc(C2CC2)n1)N1CC(Oc2cccc3scnc23)C1` [Example 312, 3-(Benzo[d]thiazol-4-yloxy)-N-(2-cyclopropylpyrimidin-4-yl)azetidine-1-carboxamide] was 10 to 79.4 nM. For the compound `O=C(NC1CN(c2ncc(CO)cn2)C1)N1CC(Oc2cc(F)cc3scnc23)C1` [Example 113, 3-((6-Fluorobenzo[d]thiazol-4-yl)oxy)-N-(1-(5-(hydroxymethyl)pyrimidin-2-yl)azetidin-3-yl)azetidine-1-carboxamide], the IC50 was 10 to 79.4 nM. Still for that read-out and setting: the same measure for `CS(=O)(=O)c1ccc(NC(=O)N2CC(Oc3cccc4scnc34)C2)nc1` [Example 311, 3-(Benzo[d]thiazol-4-yloxy)-N-(5-(methylsulfonyl)pyridin-2-yl)azetidine-1-carboxamide]: 10 to 79.4 nM; for `CC(C)(C)c1nsc(NC(=O)N2CC(Oc3cccc4scnc34)C2)n1` [Example 339]: 10 to 79.4 nM; for `CC(C)(O)[C@H]1CC[C@H](NC(=O)[C@H]2C[C@H](Nc3cccc4cccnc34)C2)CC1` [Example 222, (trans)-N-((trans)-4-(2-Hydroxypropan-2-yl)cyclohexyl)-3-(quinolin-8-ylamino)cyclobutanecarboxamide]: 100 to 1000 nM. On the same count and under the same terms, the same measure for `C[C@]1(O)CC[C@H](NC(=O)N2CC(Oc3cccc4scnc34)C2)CC1` [Example 105, 3-(Benzo[d]thiazol-4-yloxy)-N-((trans)-4-hydroxy-4-methylcyclohexyl)azetidine-1-carboxamide]: 100 to 1000 nM.

On to `COC(=O)c1coc(N2CC(NC(=O)[C@H]3C[C@H](Oc4cccc5scnc45)C3)C2)n1` [Example 45, Methyl 2-(3-((trans)-3-(benzo[d]thiazol-4-yloxy)cyclobutanecarboxamido)azetidin-1-yl)oxazole-4-carboxylate], for which the IC50 was 100 to 1000 nM. The same measure, in the same setting: the same measure for `CC(C(F)F)N1CCC(NC(=O)[C@H]2C[C@H](Oc3cc(F)ccc3OC(F)F)C2)CC1` (mixture of isomers) [Example 21, Racemic (trans)-3-(2-(Difluoromethoxy)-5-fluorophenoxy)-N-(1-(1,1-difluoropropan-2-yl)piperidin-4-yl)cyclobutanecarboxamide]: 10 to 79.4 nM; for `Cc1nccc(N2CC(NC(=O)[C@H]3C[C@H](Oc4cccc5scnc45)C3)C2)n1` [Example 50, (trans)-3-(Benzo[d]thiazol-4-yloxy)-N-(1-(2-methylpyrimidin-4-yl)azetidin-3-yl)cyclobutanecarboxamide]: 10 to 79.4 nM; for `O=C(Nc1nc(C2CC2)cs1)[C@H]1C[C@H](Oc2cccc3scnc23)C1` [Example 138, (trans)-3-(Benzo[d]thiazol-4-yloxy)-N-(4-cyclopropylthiazol-2-yl)cyclobutanecarboxamide]: < 10 nM.
